According to article PMC3275140 (Journal of Natural Products, 2011):
pIC50: −log10 of the molar value.

System: tubulin
Assay: Inhibition of tubulin polymerization
Format: biochemical
Conditions: read-out: Inhibition of tubulin polymerization IC50; pure protein assay

SMILES	pIC50
COc1cc(/C=C\c2ccc(OC)c(OP(=O)(O)O)c2O)cc(OC)c1OC [4a (Z), (Z)-1-[3′,4′,5′-Trimethoxyphenyl]-2-[2″-[hydroxy]-3″-[(disodium)phosphate]-4″-methoxyphenyl] ethene]	< 4.40
COc1ccc(/C=C\c2cc(OC)c(OC)c(OC)c2)c(OP(=O)(O)O)c1O [8a (Z), (Z)-1-[3′,4′,5′-Trimethoxyphenyl]-2-[2″-[(disodium)phosphate]-3″-[hydroxy]-4″-methoxyphenyl] ethene]	< 4.40
COc1cc(/C=C\c2ccc(OC)c(OP(=O)(O)O)c2OP(=O)(O)O)cc(OC)c1OC [CA1P (Z), reference compound]	< 4.40
